Drawing on PubChem BioAssay AID1745844 (Carcinogenic Potency Database (CPDB), 2022), this text covers carcinogen call and TD50 for 5 molecules.

Active and inactive are the calls of the source. How the calls were made is not given here.

The test system of this data set is rodent lifetime carcinogenesis bioassay, tumor incidence TD50. Description: carcinogenic potency in animals, long-term in vivo studies, CPDB compilation (AID 1745844).

On to `Cc1ccc2c(-c3cccc(O)c3)nc(=O)n(C(C)C)c2c1`, for which the carcinogen call is, setting by setting: (mouse, strain Charles River CD1, females, in feed, site: liver, lesion: hemangiosarcoma, dosed 86 weeks, study length 86 weeks) “negative (inactive)”; (mouse, strain Charles River CD1, females, in feed, site: lung, lesion: alveolar/bronchiolar adenoma, dosed 86 weeks, study length 86 weeks) “negative (inactive)”; (mouse, strain Charles River CD1, females, in feed, site: lung, lesion: hibernoma, malignant, dosed 86 weeks, study length 86 weeks) “negative (inactive)”; (mouse, strain Charles River CD1, males, in feed, site: liver, lesion: hemangiosarcoma, dosed 86 weeks, study length 86 weeks) “negative (inactive)”; (mouse, strain Charles River CD1, males, in feed, site: lung, lesion: alveolar/bronchiolar adenoma, dosed 86 weeks, study length 86 weeks) “negative (inactive)”; (rat, strain Sandoz, females, in feed, site: liver, lesion: hepatocellular carcinoma, dosed 104 weeks, study length 104 weeks) “negative (inactive)”. In addition, the carcinogen call runs as follows: (rat, strain Sandoz, females, in feed, site: mammary tissue, wider than the gland, lesion: fibroadenoma, dosed 104 weeks, study length 104 weeks) “negative (inactive)”; (rat, strain Sandoz, males, in feed, site: liver, lesion: one or several types, types not named, dosed 104 weeks, study length 104 weeks) “negative (inactive)”. The TD50 is 4600 mg/kg/day (inactive) (mouse, strain Charles River CD1, females, in feed, site: lung, lesion: alveolar/bronchiolar carcinoma, dosed 86 weeks, study length 86 weeks); 8400 mg/kg/day (inactive) (mouse, strain Charles River CD1, males, in feed, site: lung, lesion: alveolar/bronchiolar carcinoma, dosed 86 weeks, study length 86 weeks); 2220 mg/kg/day (inactive) (rat, strain Sandoz, females, in feed, site: liver, lesion: neoplastic nodule, dosed 104 weeks, study length 104 weeks); 113 mg/kg/day (inactive) (rat, strain Sandoz, males, in feed, site: adrenal gland, lesion: malignant tumor, dosed 104 weeks, study length 104 weeks).

Turning to `CCCCC1(COC(=O)CCC(=O)O)C(=O)N(c2ccccc2)N(c2ccccc2)C1=O`, the carcinogen call is, setting by setting: (rat, strain F344/DuCrj, females, in feed, site: liver, lesion: one or several types, types not named, dosed 104 weeks, study length 104 weeks) “negative (inactive)”; (rat, strain F344/DuCrj, males, in feed, site: liver, lesion: hepatocellular adenoma, dosed 104 weeks, study length 104 weeks) “negative (inactive)”; (rat, strain F344/DuCrj, males, in feed, site: liver, lesion: hepatocellular carcinoma, dosed 104 weeks, study length 104 weeks) “negative (inactive)”. Besides, the TD50 (rat, strain F344/DuCrj, males, in feed, site: adrenal gland, lesion: pheochromocytoma, dosed 104 weeks, study length 104 weeks) is 471 mg/kg/day (inactive).

Turning to `C/C1=C\C=C(\C(C)C)[C@@H](O)C/C(C)=C/CC/C(C)=C/CC1`, the carcinogen call (mouse, strain C3H/HeN, males, in feed, site: liver, lesion: hepatoma, dosed 65 weeks, study length 65 weeks) was “negative (inactive)”.

For `O=S(=O)(O)c1cc(S(=O)(=O)O)c2c(N=Nc3ccccc3)c(O)ccc2c1`, the carcinogen call is, setting by setting: (mouse, strain B6C3F1, females, in feed, site: any site (literature study), lesion: several types, types named in the paper, dosed 103 weeks, study length 104 weeks) “negative (inactive)”; (mouse, strain B6C3F1, males, in feed, site: any site (literature study), lesion: several types, types named in the paper, dosed 103 weeks, study length 103 weeks) “negative (inactive)”; (rat, strain Fischer 344, females, in feed, site: any site (literature study), lesion: several types, types named in the paper, dosed 103 weeks, study length 104 weeks) “negative (inactive)”. The TD50 runs as follows: (mouse, strain B6C3F1, males, in feed, site: lung, lesion: alveolar/bronchiolar adenoma + alveolar/bronchiolar carcinoma, dosed 103 weeks, study length 103 weeks) 22000 mg/kg/day; (rat, strain Fischer 344, males, in feed, site: any site (literature study), lesion: several types, types named in the paper, dosed 103 weeks, study length 104 weeks) 2710 mg/kg/day; (rat, strain Fischer 344, males, in feed, site: liver, lesion: hepatocellular adenoma + hepatocellular carcinoma + neoplastic nodule, dosed 103 weeks, study length 104 weeks) 620 mg/kg/day; (rat, strain Fischer 344, males, in feed, site: tunica vaginalis, lesion: mesothelioma, NOS + mesothelioma, malignant, dosed 103 weeks, study length 104 weeks) 915 mg/kg/day (inactive).

Turning to `S=C([S-])NCCNC(=S)[S-].[Zn+2]`, the TD50 is 1150 mg/kg/day (inactive) (mouse, strain B6AKF1, females, oral dosing, site: any site (literature study), lesion: several types, types named in the paper, dosed 76 weeks, study length 76 weeks); 1150 mg/kg/day (inactive) (mouse, strain B6AKF1, females, oral dosing, site: lung, lesion: adenoma, dosed 76 weeks, study length 76 weeks); 715 mg/kg/day (inactive) (mouse, strain B6AKF1, males, oral dosing, site: any site (literature study), lesion: several types, types named in the paper, dosed 76 weeks, study length 76 weeks); 903 mg/kg/day (inactive) (mouse, strain B6AKF1, males, oral dosing, site: liver, lesion: hepatoma, dosed 76 weeks, study length 76 weeks); 1150 mg/kg/day (inactive) (mouse, strain B6C3F1, females, oral dosing, site: any site (literature study), lesion: several types, types named in the paper, dosed 76 weeks, study length 76 weeks); 1150 mg/kg/day (inactive) (mouse, strain B6C3F1, females, oral dosing, site: lung, lesion: adenoma, dosed 76 weeks, study length 76 weeks). Further, the TD50 was 189 mg/kg/day (inactive) (mouse, strain B6C3F1, males, oral dosing, site: any site (literature study), lesion: several types, types named in the paper, dosed 76 weeks, study length 76 weeks); 244 mg/kg/day (inactive) (mouse, strain B6C3F1, males, oral dosing, site: liver, lesion: hepatoma, dosed 76 weeks, study length 76 weeks); 1730 mg/kg/day (inactive) (mouse, strain CFLP, females, in feed, site: liver, lesion: hepatocellular adenoma, dosed 92 weeks, study length 94 weeks); 12600 mg/kg/day (inactive) (mouse, strain CFLP, females, in feed, site: liver, lesion: hepatocellular carcinoma, dosed 92 weeks, study length 94 weeks); 6490 mg/kg/day (inactive) (mouse, strain CFLP, females, in feed, site: lung, lesion: adenocarcinoma, dosed 92 weeks, study length 94 weeks); 420 mg/kg/day (inactive) (mouse, strain CFLP, males, in feed, site: liver, lesion: hepatocellular adenoma, dosed 96 weeks, study length 96 weeks). Further, the TD50 is 3700 mg/kg/day (inactive) (mouse, strain CFLP, males, in feed, site: liver, lesion: hepatocellular carcinoma, dosed 96 weeks, study length 96 weeks); 932 mg/kg/day (inactive) (mouse, strain CFLP, males, in feed, site: lung, lesion: adenoma, dosed 96 weeks, study length 96 weeks); 1190 mg/kg/day (inactive) (rat, strain Charles River CD (Sprague-Dawley), females, in feed, site: liver, lesion: hepatocellular carcinoma, dosed 112 weeks, study length 112 weeks); 27.9 mg/kg/day (inactive) (rat, strain Charles River CD (Sprague-Dawley), females, in feed, site: pituitary gland, lesion: adenoma, dosed 112 weeks, study length 112 weeks); 1080 mg/kg/day (inactive) (rat, strain Charles River CD (Sprague-Dawley), males, in feed, site: liver, lesion: hepatocellular carcinoma, dosed 119 weeks, study length 119 weeks); 255 mg/kg/day (rat, strain Mongrel, both sexes, by gavage, site: any site (literature study), lesion: several types, types named in the paper, dosed 95 weeks, study length 104 weeks). The carcinogen call reads like this: (mouse, strain B6AKF1, females, oral dosing, site: liver, lesion: hepatoma, dosed 76 weeks, study length 76 weeks) “negative (inactive)”; (mouse, strain B6AKF1, males, oral dosing, site: lung, lesion: adenoma, dosed 76 weeks, study length 76 weeks) “negative (inactive)”; (mouse, strain B6C3F1, females, oral dosing, site: liver, lesion: hepatoma, dosed 76 weeks, study length 76 weeks) “negative (inactive)”; (mouse, strain B6C3F1, males, oral dosing, site: lung, lesion: several types, types named in the paper, dosed 76 weeks, study length 76 weeks) “negative (inactive)”; (mouse, strain CFLP, females, in feed, site: any site (literature study), lesion: several types, types named in the paper, dosed 92 weeks, study length 94 weeks) “negative (inactive)”; (mouse, strain CFLP, females, in feed, site: lung, lesion: adenoma, dosed 92 weeks, study length 94 weeks) “negative (inactive)”. The carcinogen call by setting is: (mouse, strain CFLP, males, in feed, site: any site (literature study), lesion: several types, types named in the paper, dosed 96 weeks, study length 96 weeks) “negative (inactive)”; (mouse, strain CFLP, males, in feed, site: lung, lesion: adenocarcinoma, dosed 96 weeks, study length 96 weeks) “negative (inactive)”; (rat, strain Charles River CD (Sprague-Dawley), females, in feed, site: liver, lesion: hepatocellular adenoma, dosed 112 weeks, study length 112 weeks) “negative (inactive)”; (rat, strain Charles River CD (Sprague-Dawley), males, in feed, site: liver, lesion: hepatocellular adenoma, dosed 119 weeks, study length 119 weeks) “negative (inactive)”; (rat, strain Charles River CD (Sprague-Dawley), males, in feed, site: pituitary gland, lesion: adenoma, dosed 119 weeks, study length 119 weeks) “negative (inactive)”.

For orientation: TD50 means the 50% point of the dose-response relation for the toxic effect studied.
